Counter-ions that a name gives are not always drawn. Like-named read-outs stand apart in the source and are kept apart here.
Legend:
[1] = system: rat confinement stress-induced diarrhea models; test: [Test 7] suppression of diarrhea in rat confinement stress-induced diarrhea models; assay type: in vivo, rat (male Wistar rats); settings: po, 1.0 mg/kg; feces observed over 3 hours
Method: Examination of suppressing effect on diarrhea using rat confinement stress-induced diarrhea models
The nature of the feces excreted over a total of 3 hours was observed every 30 minutes, and the results were recorded as the diarrhea coefficient (0: no fecal excretion, 1: solid feces, 2: soft feces, 3: mild diarrhea, 4: muddy feces). Here, cases with a diarrhea coefficient score of 3 or higher, i.e. from feces which left a stain on filter paper to muddy feces, were judged as diarrhea, and the rate of diarrhea suppression was calculated (Table 6).

β3 adrenergic receptor [2] = target: T1, β3 adrenergic receptor (Rattus norvegicus, UniProt P26255); test: [Test 1] spontaneous locomotion-suppressing effect on isolated rat colon (β3 adrenergic receptor stimulating effect); assay type: cell-based
β2 adrenergic receptor = β2 adrenergic receptor (Cavia porcellus, UniProt Q8K4Z4); test: [Test 3] relaxing effect on isolated guinea pig tracheal muscle (β2 adrenergic receptor stimulating effect); assay type: cell-based
β1 adrenergic receptor = target: T2, β1 adrenergic receptor (Cavia porcellus, UniProt H0W3H1); test: [Test 4] heart beat increasing effect on isolated guinea pig right atrium (β1 adrenergic receptor stimulating effect); assay type: cell-based; settings: read-out: EC10 (heart beat increasing effect on isolated guinea pig right atrium)
T2 construct: functional heart beat increase (chronotropy)

rat colon [3] = test: [Test 6] suppressing effect on spontaneous locomotion of anesthetized rat colon (in vivo test); parameters: species or system rat (male Wistar rats); settings: iv, 10 min, read-out: ED50 (suppressing effect on spontaneous locomotion of anesthetized rat colon)
Method: [Test 6] […] The lead wire of the force transducer was connected to a multipurpose preamp through a bridge box (FB-01, Star Medical), and the spontaneous locomotion of the colon was recorded with a Thermal Array Recorder (Nihon Koden), upon which the total degrees of contraction over 10 minutes were compared before and after bolus administration.

β3 adrenergic receptor [4] = target: T1, β3 adrenergic receptor; test: cell-based; parameters: Isolated rat fat was used to examine the effect on fat decomposition; from tissue; host or cells: adipocytes from fat around the testicles of male SD rats; species or system rat (male SD rats); settings: rat adipocyte suspension, 30 minutes at 30° C., glycerol content; read-out: lypolytic activity (EC50 value)
rat bladder = test: [Test 9] bladder contraction induced by electrical stimulation of peripheral end of pelvic nerve in anesthetized rat; assay type: in vivo; settings: through femoral vein; 20 Hz, 0.3 msec, 5V; urethane and α-chloralose anesthesia
Description: [Test 9] Effect on bladder contraction induced by electrical stimulation of peripheral end of pelvic nerve in anesthetized rat
After median incision in the abdomen of rats anesthetized with urethane and α-chloralose, the ureters on both sides were ligated and cut on the kidney side, and pledgets were placed on the cut sections to absorb the urine. Next, the hypogastric nerves on both sides were transected and the base of the penis were ligated at close the urethra. A small hole was opened in the top of bladder and, after inserting one end of a polyethylene tube, ligated. The other end of the polyethylene tube was connected to a pressure transducer (TP 400, Nihon Koden) to measure the intravesical pressure.
Physiological saline was injected into the bladder to obtain intravesical pressure at a 100 mm H2 O. The change of the intervesical pressure was recorded with a heat recorder (WT 685G, Nihon Koden). After ablating the left pelvic nerves from the fatty tissue around the bladder and cutting the central section, a platinum electrode was implanted at the peripheral end of the pelvic nerves. An electrical stimulation apparatus (SEN-3301, Nihon Koden) was used for generating a rectangular wave electrical stimulation (20 Hz, 0.3 msec, 5V) for 5 seconds every 5 minutes. […]

[5] = system: isolated rat bladder detrusor muscle; test: [Test 5] relaxing effect on isolated rat bladder detrusor muscle (smooth muscle); assay type: cell-based; settings: read-out: EC50 (relaxing effect on isolated rat bladder detrusor muscle)
Method: [Test 5] Examination of relaxing effect on isolated rat bladder detrusor muscle (smooth muscle)
Rat bladders were isolated by a common method for preparation of strips. The isolated bladder strips were mounted in an organ bath filled with Krebs' solution kept at 37° C., under mixed gas aeration (95% O2 +5% CO2) and subjected to an initial tension of 1.0 g. Each test compound was cumulatively added to the organ bath at intervals of 10 minutes.

bladder detrusor muscle = settings: The autonomic nervous system, 26, 380-387 (1989); cited from earlier work
[6] = treatment for urinary incontinence; cited from earlier work
β3 adrenergic receptors = settings: prior art; cited from earlier work
[7] = Drugs of the Future, 18, 529-549 (1993); cited from earlier work
rat colon [8] = settings: Drugs of the Future, 18, 529-549 (1993); cited from earlier work
[9] = 10% augmentation of heart beats, 37° C.

T2 sequence (H0W3H1 1-470): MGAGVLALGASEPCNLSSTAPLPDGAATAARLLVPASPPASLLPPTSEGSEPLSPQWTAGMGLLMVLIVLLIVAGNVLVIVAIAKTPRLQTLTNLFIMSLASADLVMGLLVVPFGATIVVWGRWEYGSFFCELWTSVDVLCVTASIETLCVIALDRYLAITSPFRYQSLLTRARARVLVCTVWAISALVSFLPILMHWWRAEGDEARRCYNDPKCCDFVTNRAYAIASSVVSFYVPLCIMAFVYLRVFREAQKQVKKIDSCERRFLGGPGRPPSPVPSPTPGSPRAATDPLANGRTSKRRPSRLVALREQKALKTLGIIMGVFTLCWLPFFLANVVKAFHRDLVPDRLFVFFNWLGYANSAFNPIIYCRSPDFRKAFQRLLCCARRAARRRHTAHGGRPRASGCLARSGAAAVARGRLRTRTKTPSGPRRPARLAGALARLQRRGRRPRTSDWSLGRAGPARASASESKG
β2 adrenergic receptor, sequence (Q8K4Z4 whole entry): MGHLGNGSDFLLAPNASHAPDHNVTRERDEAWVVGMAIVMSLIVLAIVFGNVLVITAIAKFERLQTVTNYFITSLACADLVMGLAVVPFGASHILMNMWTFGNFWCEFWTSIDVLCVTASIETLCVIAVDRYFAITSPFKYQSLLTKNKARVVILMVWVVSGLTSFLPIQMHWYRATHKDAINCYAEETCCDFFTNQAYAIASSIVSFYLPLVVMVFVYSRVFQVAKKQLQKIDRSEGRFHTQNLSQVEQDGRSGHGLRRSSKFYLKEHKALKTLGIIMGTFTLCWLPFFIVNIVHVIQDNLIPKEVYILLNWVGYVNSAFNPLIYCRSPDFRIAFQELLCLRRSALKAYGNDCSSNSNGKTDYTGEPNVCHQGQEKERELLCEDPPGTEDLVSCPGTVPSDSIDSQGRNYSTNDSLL
T1 sequence (P26255 whole entry): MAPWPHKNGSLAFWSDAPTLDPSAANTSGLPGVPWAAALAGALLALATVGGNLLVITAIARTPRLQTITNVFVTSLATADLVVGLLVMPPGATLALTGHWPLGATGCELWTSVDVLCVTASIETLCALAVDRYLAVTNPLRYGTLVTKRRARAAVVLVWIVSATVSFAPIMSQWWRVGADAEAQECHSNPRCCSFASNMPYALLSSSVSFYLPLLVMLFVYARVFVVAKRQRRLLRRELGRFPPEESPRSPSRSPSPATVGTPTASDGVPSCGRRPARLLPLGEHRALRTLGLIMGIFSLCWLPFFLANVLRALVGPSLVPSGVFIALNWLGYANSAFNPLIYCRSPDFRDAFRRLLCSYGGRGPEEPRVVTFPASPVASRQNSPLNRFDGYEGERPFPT

| EC50 (β3 adrenergic receptor [2]) [nM] | EC50 (β2 adrenergic receptor) [nM] | EC10 (β1 adrenergic receptor; [9]) [nM] | SMILES | diarrhea suppression rate [1] [%] | further results |
| --- | --- | --- | --- | --- | --- |
|  |  |  | CCOC(=O)COc1cccc(C2CCCC(NC[C@H](O)c3cccc(Cl)c3)C2)c1 (stereo partly drawn) [Example 14, (1R)-1-(3-Chlorophenyl)-2-[3-(3-ethoxycarbonylmethoxyphenyl)cyclohexylamino]ethanol] | 50 |  |
| 42 |  |  | CCOC(=O)C1(C(=O)OCC)Oc2ccc(C3CCCC(NC[C@H](O)c4cccc(Cl)c4)C3)cc2O1 (stereo partly drawn) [Example 60, (2R)-Diethyl 5-[3-[2-(3-chlorophenyl)-2-hydroxyethylamino]cyclohexyl]benzo-1,3-dioxol-2,2-dicarboxylate] |  |  |
| 12 | 15000 | > 30000 | O=C(O)COc1ccc(C2CCCC(NC[C@H](O)c3cccc(Cl)c3)C2)cc1 (single isomer, unassigned) [Example 32, acetate] |  |  |
|  |  |  | CC(C)NCC(O)c1ccc(O)c(O)c1 (stereo not shown) [Isoproterenol] |  | EC50 [5]: 10 nM |
|  |  |  | CC(C)(C)NCC(O)c1cc(Cl)c(N)c(Cl)c1 (stereo not shown) [Clenbuterol] |  | relaxing effect on the bladder detrusor muscle (bladder detrusor muscle): relaxing effect on the bladder detrusor muscle; EC50 [5]: 31 nM; side-effects [6]: side-effects including finger tremor and palpitation |
|  |  |  | COC(=O)COc1ccc(C[C@@H](C)NC[C@H](O)c2cccc(Cl)c2)cc1 (relative stereo) [BRL35135, (R*R*)-(±)-[4-[2-[2-(3-chlorophenyl)-2-hydroxyethylamino]propyl]phenoxy]acetic acid methyl ester hydrobromide salt] |  | selective action on β3 adrenergic receptors (β3 adrenergic receptors): act selectively on β3 adrenergic receptors; lypolytic and hypoglycemic effect [7]: lypolytic and hypoglycemic effect |
| 3.7 | 790 | > 30000 | CCOC(=O)COc1cccc(C2CCCC(NC[C@H](O)c3cccc(Cl)c3)C2)c1 (stereo partly drawn) [Example 11, (1R)-1-(3-Chlorophenyl)-2-[3-(3-ethoxycarbonylmethoxyphenyl)cyclohexylamino]ethanol hydrochloride] |  | ED50 (rat colon [3]): 0.23 µg/kg |
| 7.7 | 14000 | > 30000 | CCOC(=O)COc1ccc2c(c1)CC(NCC(O)c1cccc(Cl)c1)CC2.Cl (racemic) [SR 58611A, (RS)-N-(7-ethoxycarbonylmethoxy-1,2,3,4-tetrahydronaphth-2-yl)-2-(3-chlorophenyl)-2-hydroxyethanamine hydrochloride, reference compound] | 20 | suppressing effect on spontaneous locomotion of rat colon (rat colon [8]): potent suppressing effect on spontaneous locomotion of rat colon; ED50 (rat colon [3]): 12 µg/kg; selective action on β3 adrenergic receptors (β3 adrenergic receptors): act selectively on β3 adrenergic receptors |
| 90 | 820 | > 30000 | CCOC(=O)COc1ccc(C2CCC(NC[C@H](O)c3cccc(Cl)c3)C2)cc1 (stereo partly drawn) [Example 69, (2R)-Ethyl (4-[3-[2-(3-chlorophenyl)-2-hydroxyethylamino]cyclopentyl]phenoxy)acetate] |  |  |
| 3.8 | 820 | > 30000 | CCOC(=O)COc1ccccc1C1CCCC(NC[C@H](O)c2cccc(Cl)c2)C1 (stereo partly drawn) [Example 43, (1R)-(3-Chlorophenyl)-2-[3-(2-ethoxycarbonylmethoxyphenyl)cyclohexylamino]ethanol hydrochloride] | 50 |  |
| 15 | 1100 |  | CCOC(=O)COc1ccc(C2CCCC(NC[C@H](O)c3cccc(Cl)c3)C2)cc1 (stereo partly drawn) [Example 28, (1R)-1-(3-Chlorophenyl)-2-[3-(4-ethoxycarbonylmethoxyphenyl)cyclohexylamino]ethanol hydrochloride] |  |  |

| SMILES | EC50 (β3 adrenergic receptor [2]) [nM] | EC50 (β2 adrenergic receptor) [nM] | EC10 (β1 adrenergic receptor; [9]) [nM] | diarrhea suppression rate [1] [%] | further results |
| --- | --- | --- | --- | --- | --- |
| O=C([O-])COc1cccc(C2CCCC(NC[C@H](O)c3cccc(Cl)c3)C2)c1.[Na+] (stereo partly shown) | 1.4 | 4200 |  | 60 | ED50 (rat colon [3]): 0.27 µg/kg; EC10 (β1 adrenergic receptor): > 30000 nM; EC50 (β3 adrenergic receptor [4]): 21 nM; suppression of bladder contraction (FIG. 2) (rat bladder): suppressed bladder contraction at a lower dose than Clenbuterol hydrochloride; EC50 [5]: 16 nM |
| O=C([O-])COc1ccccc1C1CCCC(NC[C@H](O)c2cccc(Cl)c2)C1.[Na+] (stereo partly shown) | 3.3 | 890 |  | 30 | EC10 (β1 adrenergic receptor): > 30000 nM |
